Experimental data as given in patent US6784309B2, “Method for the purification of N-[N-(3,3-dimethylbutyl)-L-α-aspartyl]-L-phenylalanine 1-methyl ester” (The Nutrasweet Company, priority 1999, dated 2004).

Experiments:
[1] = solubility compared to neotame; format: physicochemical; details: relative to neotame; for solubility compared to neotame: crystallization context
[2] = relative to sucrose; cited from earlier work

solubility compared to neotame [1]	Structure (SMILES)	other results
very similar solubilities	COC(=O)[C@H](Cc1ccccc1)NC(=O)[C@H](CC(=O)O)N(CCC(C)(C)C)CCC(C)(C)C [dialkylated aspartame, N,N-di(3,3-dimethylbutyl)-L-aspartyl-L-phenylalanine methyl ester]	
very similar solubilities	COC(=O)C[C@H](NCCC(C)(C)C)C(=O)NC(Cc1ccccc1)C(=O)OC (stereo partly drawn) [methyl ester of α-neotame, methyl ester of N-[N-(3,3-dimethylbutyl)-L-α-aspartyl]-L-phenylalanine 1-methyl ester]	
very similar solubilities	COC(=O)[C@H](Cc1ccccc1)N1C(=O)C(CC(=O)O)N(CCC(C)(C)C)C1CC(C)(C)C (stereo partly drawn) [dialkylated imidazolidinone, α-methyl hydrogen-3-(3,3-dimethylbutyl)-2-L-(2,2-dimethylpropyl)-5-oxo-α-L-(phenylmethyl)-1,4(L)-imidazolidine diacetate]	
	COC(=O)C(Cc1ccccc1)NC(=O)C(CC(=O)O)NCCC(C)(C)C [neotame, N-[N-(3,3-dimethylbutyl)-L-α-aspartyl]-L-phenylalanine 1-methyl ester]	sweetness potency (sweeter than sucrose) [2]: about 8000 X
	CC(C)(C)CCN[C@@H](CC(=O)O)C(=O)N[C@@H](Cc1ccccc1)C(=O)O [demethylated α-neotame, N-[N-(3,3-dimethylbutyl)-L-α-aspartyl]-L-phenylalanine]	solubility in water compared to neotame ([1]; water): more soluble in water
